Test results: patent EP4678638A1, “NEW E3 UBIQUITIN LIGASE LIGAND, PROTEIN DEGRADATION AGENT AND USE THEREOF” (priority 2023, dated 2024)

Columns and labels:
[1] = biological target: T1, CDK6 (Homo sapiens, UniProt Q00534); test: Western blot degradation of CDK6 (MDA-MB-231 Cell); assay type: cell-based; details: Table D3
T1 construct: evaluate the effects of the compounds of the present disclosure on the expression of target proteins in cells; endogenous in cells; host or cells: MDA-MB-231
How it was run: (§1)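 After compound exposure, cells were harvested and lysates run on SDS-PAGE, transferred to nitrocellulose and probed with antibodies. Remaining target (%) was computed from band grayscale relative to an internal control protein and normalised; degradation (%) was 100% minus that.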

[2] = test system: MV-4-11; test: CCK-8 proliferation, MV-4-11; assay type: cell-based, Human; details: Homo sapiens, MV4-11; CCK-8; 72 or 96 hours; read-out: Inhibitory activity (IC50) on tumor cell proliferation, MV-4-11
How it was run: (§2)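 Tumor cells were cultured at 37°C with 5% CO2, seeded, and after 24h treated with compounds at 10 concentrations starting at 10µM (5-fold serial dilutions).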

[3] = test system: MCF7; test: CCK-8 proliferation, MCF7 (MCF-7); assay type: cell-based; details: Homo sapiens, MCF7; CCK-8; read-out: Inhibitory activity (IC50) on tumor cell proliferation, MCF7
How it was run: as §2

[4] = test system: CCRF-CEM; test: CCK-8 proliferation, CCRF-CEM; assay type: cell-based, Human; details: Homo sapiens, CCRF-CEM; CCK-8; 96 hours; read-out: Inhibitory activity (IC50) on tumor cell proliferation, CCRF-CEM
How it was run: as §2

[5] = biological target: T2, CDK4 (Homo sapiens, UniProt P11802); test: Western blot degradation of CDK4 (MDA-MB-231 Cell); assay type: cell-based; details: Table D3
T2 construct: evaluate the effects of the compounds of the present disclosure on the expression of target proteins in cells; endogenous in cells; host or cells: MDA-MB-231
T2 sequence (P11802 whole entry): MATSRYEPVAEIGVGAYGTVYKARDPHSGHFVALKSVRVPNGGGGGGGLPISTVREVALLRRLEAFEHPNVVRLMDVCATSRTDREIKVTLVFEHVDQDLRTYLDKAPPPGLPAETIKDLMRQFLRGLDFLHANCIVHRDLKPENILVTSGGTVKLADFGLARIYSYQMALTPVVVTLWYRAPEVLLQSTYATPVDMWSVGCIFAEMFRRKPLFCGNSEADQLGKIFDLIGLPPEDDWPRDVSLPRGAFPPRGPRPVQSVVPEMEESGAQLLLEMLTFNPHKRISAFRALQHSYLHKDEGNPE
How it was run: as §1

[6] = test system: H1975; test: CCK-8 proliferation, NCI-H1975 (H1975); assay type: cell-based, Human; details: Homo sapiens, NCI-H1975; CCK-8; 96 hours; read-out: Inhibitory activity (IC50) on tumor cell proliferation, H1975
How it was run: as §2

[7] = test system: MM.1S; test: CCK-8 proliferation, MM.1S; assay type: cell-based; details: Homo sapiens, MM1.S; CCK-8; 72 hours; read-out: Inhibitory activity (IC50) on tumor cell proliferation, MM1S
How it was run: as §2

[8] = test system: 22RV1; test: CCK-8 proliferation, 22RV1; assay type: cell-based; details: Homo sapiens, 96 hours, read-out: Inhibitory activity (IC50) on tumor cell proliferation, 22RV1
Description: (§3) The tumor cells used herein were cultured in a cell culture medium listed in table A1 at 37°C in an incubator with 5% CO2. Prior to experimentation, all cell lines used were correctly identified by STR profiling, and tested negative for mycoplasma contamination using a mycoplasma detection kit through routine screenings. Table A1. Tumor cells and cell culture medium used in the present disclosure
(§4) IC50 values of the compounds of the present disclosure (including the compounds in Table 1, and compounds of examples) were measured using the Meilun Cell Counting Kit-8 kit from Dalian Meilun Biotech Co., Ltd. Assay details are as follows: tumor cells were seeded in a 96-well plate at a density listed in Table A2. After 24h, 100 µL of the inoculated cells were treated with 0.5µL of the compounds of the present disclosure (including the compounds in Tables 1 and 2, and compounds of examples) at 10 different successively decreasing concentrations (starting at the highest concentration of 10µM; 5-fold serial dilutions). After the cells were treated with the compounds of the present disclosure for a period of time, the cell viability detection reagent was added to the culture medium for cell viability assessment according to the instructions provided with the CCK-8 kit. […] The growth inhibition of the compounds of the present disclosure on cells was plotted by Prism Graphpad software, and the IC50 values of the compounds of the present disclosure were calculated therefrom. […] Seeding protocol and treatment time for tumor cells

[9] = test system: SR; test: CCK-8 proliferation, SR; assay type: cell-based, Human; details: Homo sapiens, SR; CCK-8; 72 hours; read-out: Inhibitory activity (IC50) on tumor cell proliferation, SR
How it was run: as §2

[10] = test system: Kasumi-1; test: CCK-8 proliferation, Kasumi-1; assay type: cell-based, Human; details: Homo sapiens, Kasumi 1, 72 hours, read-out: Inhibitory activity (IC50) on tumor cell proliferation, Kasumi-1
How it was run: as §2

[11] = test system: MM.1R; test: CCK-8 proliferation, MM.1R; assay type: cell-based; details: CCK-8, 72 hours, read-out: Inhibitory activity (IC50) on tumor cell proliferation, MM.1R
Description: as §3, §4

T1 sequence (Q00534 whole entry): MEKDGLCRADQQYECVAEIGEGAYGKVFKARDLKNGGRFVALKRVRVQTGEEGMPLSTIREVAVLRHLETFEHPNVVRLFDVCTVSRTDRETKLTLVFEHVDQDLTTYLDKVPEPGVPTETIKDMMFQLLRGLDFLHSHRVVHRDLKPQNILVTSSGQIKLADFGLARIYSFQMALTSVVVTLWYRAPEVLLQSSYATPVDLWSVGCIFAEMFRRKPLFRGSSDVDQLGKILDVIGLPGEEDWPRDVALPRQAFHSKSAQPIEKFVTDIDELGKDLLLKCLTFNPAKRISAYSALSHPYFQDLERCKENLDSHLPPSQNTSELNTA

Row | SMILES | IC50 [2] | IC50 [3] | IC50 [4] | IC50 [6] | IC50 [7] | IC50 [8] | IC50 [11] | Degradation of substrate protein CDK6 (substrate protein remaining %) [1] | Degradation of substrate protein CDK4 (substrate protein remaining %) [5] | IC50 [9] | IC50 [10]
1 | Cc1nc2c(F)cc(-c3nc(Nc4ccc(N5CCC(N6CCN(Cc7cccc(NC8CCC(=O)NC8=O)c7)CC6)CC5)cn4)ncc3F)cc2n1C(C)C (stereo not drawn) [GT-06743, 3-((3-((4-(1-(6-((5-fluoro-4-(4-fluoro-1-isopropyl-2-methyl-1H-benzo[d]imidazol-6-yl)pyrimidin-2-yl)amino)pyridin-3-yl)piperidin-4-yl)piperazin-1-yl)methyl)phenyl)amino)pip eridine-2,6-dione] | 50 to 100 nM | 100 to 500 nM | 100 to 500 nM | 100 to 500 nM | 100 to 500 nM | 10 to 50 nM | – | B (B is defined as substrate protein remaining % > 80%) | A (A is defined as 0% ≤ substrate protein remaining % ≤ 80%) | 50 to 100 nM | 100 to 500 nM
2 | Cc1nc2c(F)cc(-c3nc(Nc4ccc(N5CCC(N(C)Cc6ccc(N7CCC(=O)NC7=O)cn6)CC5)cn4)ncc3F)cc2n1C(C)C [GT-06840, 1-(6-(((1-(6-((5-fluoro-4-(4-fluoro-1-isopropyl-2-methyl-1H-benzo[d]imidazol-6-yl)pyrimidin-2-yl)amino)pyridin-3-yl)piperidin-4-yl)(methyl)amino)methyl)pyridin-3-yl)dihydropyrimidine-2,4(1H,3H)-dione] | 50 to 100 nM | 1 to 10 nM | 100 to 500 nM | 100 to 500 nM | 100 to 500 nM | 50 to 100 nM | – | B (B is defined as substrate protein remaining % > 80%) | A (A is defined as 0% ≤ substrate protein remaining % ≤ 80%) | 50 to 100 nM | 100 to 500 nM
3 | CC(=O)c1c(C)c2cnc(Nc3ccc(N4CCNCC4)cn3)nc2n(C2CCCC2)c1=O [Palbociclib, reference compound] | 100 to 500 nM | 1000 to 5000 nM | 1000 to 5000 nM | 5000 to 10000 nM | > 10000 nM | 100 to 500 nM | > 10000 nM | – | – | 1000 to 5000 nM | 1000 to 5000 nM
4 | CN(C)C(=O)c1cc2cnc(Nc3ccc(N4CCNCC4)cn3)nc2n1C1CCCC1 [Ribociclib, reference compound] | 5000 to 10000 nM | 5000 to 10000 nM | > 10000 nM | > 10000 nM | 5000 to 10000 nM | 1000 to 5000 nM | > 10000 nM | – | – | 5000 to 10000 nM | 1000 to 5000 nM

Second part, led by results:

Row | IC50 [2] | IC50 [3] | IC50 [4] | IC50 [6] | IC50 [7] | IC50 [8] | IC50 [11] | SMILES | Degradation of substrate protein CDK6 (substrate protein remaining %) [1] | Degradation of substrate protein CDK4 (substrate protein remaining %) [5] | IC50 [9] | IC50 [10]
5 | 10 to 50 nM | 50 to 100 nM | 50 to 100 nM | 100 to 500 nM | 100 to 500 nM | 10 to 50 nM | – | Cc1nc2c(F)cc(-c3nc(Nc4ccc(N5CCC(N6CCN(Cc7ccc(N8CCC(=O)NC8=O)cn7)CC6)CC5)cn4)ncc3F)cc2n1C(C)C [GT-06741, 1-(6-((4-(1-(6-((5-fluoro-4-(4-fluoro-1-isopropyl-2-methyl-1H-benzo[d]imidazol-6-yl)pyrimidin-2-yl)amino)pyridin-3-yl)piperidin-4-yl)piperazin-1-yl)methyl)pyridin-3-yl)dihydropyrimidine-2,4(1H,3H)-dione] | B (B is defined as substrate protein remaining % > 80%) | A (A is defined as 0% ≤ substrate protein remaining % ≤ 80%) | 10 to 50 nM | 100 to 500 nM
6 | 10 to 50 nM | 50 to 100 nM | 100 to 500 nM | 100 to 500 nM | 100 to 500 nM | 10 to 50 nM | – | Cc1nc2c(F)cc(-c3nc(Nc4ccc(N5CCC(N(C)Cc6ccc(N7CCC(=O)NC7=O)cc6)CC5)cn4)ncc3F)cc2n1C(C)C [GT-06838, 1-(4-(((1-(6-((5-fluoro-4-(4-fluoro-1-isopropyl-2-methyl-1H-benzo[d]imidazol-6-yl)pyrimidin-2-yl)amino)pyridin-3-yl)piperidin-4-yl)(methyl)amino)methyl)phenyl)dihydropyrimidine-2,4(1H,3H)-dione] | B (B is defined as substrate protein remaining % > 80%) | A (A is defined as 0% ≤ substrate protein remaining % ≤ 80%) | 10 to 50 nM | 50 to 100 nM
7 | 10 to 50 nM | 50 to 100 nM | 100 to 500 nM | 100 to 500 nM | 100 to 500 nM | 10 to 50 nM | – | Cc1nc2c(F)cc(-c3nc(Nc4ccc(N5CCC(N(C)Cc6cccc(N7CCC(=O)NC7=O)c6)CC5)cn4)ncc3F)cc2n1C(C)C [GT-06839, 1-(3-(((1-(6-((5-fluoro-4-(4-fluoro-1-isopropyl-2-methyl-1H-benzo[d]imidazol-6-yl)pyrimidin-2-yl)amino)pyridin-3-yl)piperidin-4-yl)(methyl)amino)methyl)phenyl)dihydropyrimidine-2,4(1H,3H)-dione] | A (A is defined as 0% ≤ substrate protein remaining % ≤ 80%) | A (A is defined as 0% ≤ substrate protein remaining % ≤ 80%) | 50 to 100 nM | 10 to 50 nM
8 | 10 to 50 nM | 50 to 100 nM | 100 to 500 nM | 100 to 500 nM | 100 to 500 nM | 10 to 50 nM | – | Cc1nc2c(F)cc(-c3nc(Nc4ccc(N5CCC(N(C)Cc6ccc(N7CCC(=O)NC7=O)nc6)CC5)cn4)ncc3F)cc2n1C(C)C [GT-06841, 1-(5-(((1-(6-((5-fluoro-4-(4-fluoro-1-isopropyl-2-methyl-1H-benzo[d]imidazol-6-yl)pyrimidin-2-yl)amino)pyridin-3-yl)piperidin-4-yl)(methyl)amino)methyl)pyridin-2-yl)dihydropyrimidine-2,4(1H,3H)-dione] | A (A is defined as 0% ≤ substrate protein remaining % ≤ 80%) | A (A is defined as 0% ≤ substrate protein remaining % ≤ 80%) | 10 to 50 nM | 50 to 100 nM
